Converted amounts (≈) assume the structure as drawn. “And” between values parts separate entries of the source, which are not always exact repeats. Equal values may be shown once. Read-outs that look alike come from different tables or passages of the source.
Legend:
mdr1 = experiment: PXR target gene expression in hPXR mice (mice expressing the human PXR gene) after FKK6 gavage; type: in vivo, mouse; conditions: both sexes, C57BL/6-Nr1i2tm1(NR1I2)Arte (hPXR mice), mouse, 500 μM, 5 doses (60 h), individual mice
Description: (§1) (Scheer et al, 2010) were administered 10% DMSO (n = 3) or FKK6 (n = 3) in 3 or 5 doses, with each dose interval of 12 h. Each gavage dose volume was 100 μl. 2–4 h after the dosing period, mice were sacrificed, and tissues were harvested for further analysis. The mouse studies were performed three independent times over an 18‐month period. All purchased mice were acclimatized in the Einstein vivarium for ~ 2 weeks before experiments started. […]. The room temperature was maintained at 25 ± 2°C with 55 ± 5% humidity. All studies were approved by the Institute of Animal Studies at the Albert Einstein College of Medicine, INC (IACUC # 20160706, 20160701 and preceding protocols), and specific animal protocols were also approved by additional protocols (IACUC# 20170406, 20170504) and Animal Care and Use Review Office (ACURO) of the US Army Medical Research and Materiel Command (PR160167, W81XWH‐17‐1‐0479). […]
(§2) Mouse small, large intestine and liver samples were collected and total RNAs were […]
(§3) isolated. […] Each tissue PCR was […]
(§4) repeated in quadruplicate. The expression was normalized to internal control, GAPDH. ( b,d) The histograms show mean (95 %CI) values, c, mean (SD) and two way ANOVA followed with Tukey's post hoc test. The entire experiment was repeated n = 3 for reproducibility. The data shown is one representative experiment .

Cyp3a11 [1] = experiment: as above; type: in vivo, mouse; conditions: both sexes, C57BL/6-Nr1i2tm1(NR1I2)Arte (hPXR mice), mouse, 500 μM, 5 doses (60 h), individual mice
Description: as §1, §2, §3, §4

hPXR mice = experiment: as above; type: in vivo, mouse; conditions: for mdr1 fold expression / Cyp3a11 fold expression: Fig 4f
Description: as §1, §2, §3, §4

HDAC3 = target: T1, HDAC3 (Homo sapiens, UniProt O15379); experiment: HDAC fluorescent activity assay; type: biochemical; conditions: substrate Peptide (Ac), replicates
T1 construct: purchased Reaction Biology Corp
T1 sequence (O15379 whole entry): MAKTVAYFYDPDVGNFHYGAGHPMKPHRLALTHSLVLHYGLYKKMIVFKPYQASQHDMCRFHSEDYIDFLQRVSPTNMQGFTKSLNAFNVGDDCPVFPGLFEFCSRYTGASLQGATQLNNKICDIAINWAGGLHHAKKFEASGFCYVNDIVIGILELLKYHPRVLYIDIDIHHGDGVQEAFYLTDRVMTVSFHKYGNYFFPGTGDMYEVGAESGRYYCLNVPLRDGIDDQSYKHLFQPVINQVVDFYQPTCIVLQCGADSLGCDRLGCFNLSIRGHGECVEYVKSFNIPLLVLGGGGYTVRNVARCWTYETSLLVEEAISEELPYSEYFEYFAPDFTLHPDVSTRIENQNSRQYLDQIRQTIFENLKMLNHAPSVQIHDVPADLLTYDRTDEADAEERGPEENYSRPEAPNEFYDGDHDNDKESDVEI
T1 sequence (Q9Y618 395-489 partner limits assumed): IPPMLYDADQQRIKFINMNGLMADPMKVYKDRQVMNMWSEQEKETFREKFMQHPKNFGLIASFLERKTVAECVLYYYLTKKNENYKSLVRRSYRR
Description: (§5) The following […] assays (HDAC, SIRT1, PRMT1, PARP1, p300, pCAF) were performed by Reaction Biology Corp. FKK6 was screened at a single concentration of 10 μM in duplicate in two separate experiments. The appropriate controls for the individual assays are published. […]
(§6) The Histone Deacetylase (HDAC) fluorescent activity assay (HDAC1-3) is based on the using 2X purified human enzyme mixed with the reaction buffer (50 mM Tris-HCl pH 8, 137 mM NaCl, 2.7 mM KCl, and 1 mM MgCl2, 1 mg/mL fresh BSA and 1% fresh DMSO) and then compounds (in 100% DMSO) are titrated in using Acoustic Technology.
(§7) The 2X HDAC substrate is a fluorogenic acetylated peptide from p53 (residues 379 - 38 2 RHKK(Ac)AMC) which is mixed in with the enzyme-compound complex and incubated for 1-2 h at 30 °C. In the development step, a proprietary developer with trichostatin A (or TMP269) is added to stop the reaction and to generate fluorescent color which is read using an EnVision Multilabel Plate Reader (Perkin Elmer) (Ex 360 nm/ Em 460 nm). For all enzyme activity assays, the percentage of enzyme activity (relative to DMSO controls) and IC50 values were calculated using GraphPad Prism 4 program (sigmoidal dose response equations). […]
(§8) SMCT solution (0.32 M sucrose, 10 mM Tris -HCl, 1 mM MgCl2, 1 mM CaCl2, 0.1 mM PMSF and freshly prepared 1 mM DTT at pH 7.4) once in the presence of 0.25% Triton X-100 and once in its

HDAC2 = target: T2, HDAC2 (Homo sapiens, UniProt Q92769); experiment: HDAC fluorescent activity assay; type: biochemical; conditions: substrate Peptide (Ac), replicates
T2 construct: purchased Reaction Biology Corp
T2 sequence (Q92769 whole entry): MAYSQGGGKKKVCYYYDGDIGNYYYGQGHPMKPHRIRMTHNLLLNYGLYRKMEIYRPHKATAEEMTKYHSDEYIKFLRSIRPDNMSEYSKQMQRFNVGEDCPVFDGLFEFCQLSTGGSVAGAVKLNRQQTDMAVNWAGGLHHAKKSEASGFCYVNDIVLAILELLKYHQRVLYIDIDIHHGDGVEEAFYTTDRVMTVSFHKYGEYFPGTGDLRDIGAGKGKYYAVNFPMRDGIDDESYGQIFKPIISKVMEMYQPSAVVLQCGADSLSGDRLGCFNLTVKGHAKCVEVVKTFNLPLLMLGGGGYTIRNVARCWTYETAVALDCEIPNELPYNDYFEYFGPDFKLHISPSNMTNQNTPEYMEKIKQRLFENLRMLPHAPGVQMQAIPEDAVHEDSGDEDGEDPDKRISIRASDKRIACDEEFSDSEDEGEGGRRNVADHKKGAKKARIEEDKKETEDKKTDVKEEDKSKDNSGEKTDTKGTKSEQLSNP
Description: as §5, §6, §7, §8

HDAC1 = target: T3, HDAC1 (Homo sapiens, UniProt Q13547); experiment: HDAC fluorescent activity assay; type: biochemical; conditions: substrate Peptide (Ac), replicates
T3 construct: purchased Reaction Biology Corp
T3 sequence (Q13547 whole entry): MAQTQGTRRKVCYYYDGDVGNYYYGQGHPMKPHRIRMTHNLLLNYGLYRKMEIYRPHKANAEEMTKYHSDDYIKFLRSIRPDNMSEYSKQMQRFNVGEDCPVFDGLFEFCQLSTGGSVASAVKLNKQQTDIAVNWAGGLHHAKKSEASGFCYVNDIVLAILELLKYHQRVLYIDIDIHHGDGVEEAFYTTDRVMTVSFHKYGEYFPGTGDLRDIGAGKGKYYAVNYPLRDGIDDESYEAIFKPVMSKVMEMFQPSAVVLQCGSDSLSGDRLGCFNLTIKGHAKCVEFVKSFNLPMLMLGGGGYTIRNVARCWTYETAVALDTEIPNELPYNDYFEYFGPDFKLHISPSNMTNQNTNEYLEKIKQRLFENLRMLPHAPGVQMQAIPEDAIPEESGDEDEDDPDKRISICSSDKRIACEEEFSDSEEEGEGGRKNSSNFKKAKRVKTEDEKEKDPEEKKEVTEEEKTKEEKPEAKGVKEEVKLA
Description: as §5, §6, §7, §8

C57BL/6 mice = experiment: PXR target gene expression in C57BL/6 mice after FKK6 gavage; type: in vivo, mouse; conditions: for Cyp3a11 fold expression / mdr1 fold expression: Fig 4d
Description: as §1, §2, §3, §4

Cyp3a11 [2] = experiment: as above; type: in vivo, mouse; conditions: both sexes, C57BL/6J, mouse, 500 μM, 5 doses (60 h), individual mice
Description: as §1, §2, §3, §4

mdr1a = experiment: as above; type: in vivo, mouse; conditions: both sexes, C57BL/6J, mouse, 500 μM, 5 doses (60 h), individual mice
Description: as §1, §2, §3, §4

[3] = Solubility of FKK6 in 10% DMSO; type: physicochemical; conditions: aqueous, aqueous with cosolvent or surfactant or cyclodextrin, room temperature, read-out: maximal solubility (saturation concentration)
Description: FKK6 was solubilized to saturation concentrations (~ 500 μM) at room temperature in 10% DMSO (DMSO maximum tolerated dose in mice is ~ 2.5 g/kg/day for 35 consecutive days) (Caujolle et al, 1967a; Brayton, 1986).

[4] = 500 μM, 5 doses (60 h), individual mice
[5] = read-out: % Enzyme Activity to DMSO controls

C#CCC(O)(c1ccncc1)c1cc2ccccc2n1S(=O)(=O)c1ccccc1 (centres unmarked) [FKK6]
fold induction at 60 h, 500 µM (mdr1; in vivo, read-out: mdr1 fold induction, Large Intestine): 1.85
fold induction at 60 h, 500 µM (mdr1; large intestine, oral, read-out: mdr1 fold induction, Large Intestine): 1.96
fold induction at 60 h, 500 µM (mdr1; small intestine, oral, read-out: mdr1 fold induction, Small Intestine): 1.84
fold induction at 60 h, 500 µM (Cyp3a11 [1]; in vivo, read-out: Cyp3a11 fold induction, Liver): 1.81
fold induction at 60 h, 500 µM (Cyp3a11 [1]; in vivo, read-out: Cyp3a11 fold induction, Small Intestine): 1.85
fold induction at 60 h, 500 µM (Cyp3a11 [1]; large intestine, oral, read-out: Cyp3a11 fold induction, Large Intestine): 0.87
fold induction at 60 h, 500 µM (Cyp3a11 [1]; liver, oral, read-out: Cyp3a11 fold induction, Liver): 0.75
fold induction at 60 h, 500 µM (Cyp3a11 [1]; small intestine, oral, read-out: Cyp3a11 fold induction, Small Intestine): 0.85
Cyp3a11 fold induction, Large Intestine (hPXR mice; [4]): 0.5 fold
Cyp3a11 fold induction, Liver (hPXR mice; [4]): 0.51 fold
Cyp3a11 fold induction, Small Intestine (hPXR mice; [4]): 0.81 fold
mdr1 fold induction, Large Intestine (hPXR mice; [4]): 2.03 fold
mdr1 fold induction, Liver (hPXR mice; [4]): distinct increase and 4.6 fold and 5.65 fold and 2.73 fold
mdr1 fold induction, Small Intestine (hPXR mice; [4]): 1.7 fold and 2.02 fold
mdr1 fold expression (hPXR mice; Large Intestine): 2.55 fold
Cyp3a11 fold expression (hPXR mice; Liver): 2.01 fold and 1.78 fold and 1.23 fold
mdr1 fold expression (hPXR mice; Liver): 0.93 fold and 1.05 fold and 1.28 fold
Cyp3a11 fold expression (hPXR mice; Small Intestine): 3.71 fold and 3.81 fold and 4.42 fold
mdr1 fold expression (hPXR mice; Small Intestine): 1.46 fold and 1.56 fold and 1.59 fold
% Enzyme Activity to DMSO controls (HDAC3; 10 μM): 116.9% and 114.05% and 107.82%
remaining activity at 10 µM (HDAC3; [5]): 122%
% Enzyme Activity to DMSO controls (HDAC2; 10 μM): 78.19% and 83.24% and 88.71%
remaining activity at 10 µM (HDAC2; [5]): 86.3%
% Enzyme Activity to DMSO controls (HDAC1; 10 μM): 101.46% and 89.76% and 86.7%
remaining activity at 10 µM (HDAC1; [5]): 106%
Cyp3a11 fold induction, Liver (C57BL/6 mice; 500 μM FKK6 gavage every 12 h, 5 doses (60 h), individual mice): 1.38 fold and 0.89 fold
Cyp3a11 fold induction, Large Intestine (C57BL/6 mice; [4]): 2.23 fold and 0.59 fold
Cyp3a11 fold induction, Small Intestine (C57BL/6 mice; [4]): 1.06 fold and 0.22 fold and 0.76 fold
mdr1a fold induction, Large Intestine (C57BL/6 mice; [4]): 1.77 fold and 1.33 fold
mdr1a fold induction, Liver (C57BL/6 mice; [4]): 1.83 fold
mdr1a fold induction, Small Intestine (C57BL/6 mice; [4]): 2.65 fold and 1.8 fold and 0.95 fold
mdr1b fold induction, Large Intestine (C57BL/6 mice; [4]): 0.89 fold and 0.42 fold and 0.77 fold
mdr1b fold induction, Liver (C57BL/6 mice; [4]): 1.65 fold and 1.12 fold and 0.6 fold
mdr1b fold induction, Small Intestine (C57BL/6 mice; [4]): 2.4 fold and 1.54 fold and 0.43 fold
Cyp3a11 fold expression (C57BL/6 mice; Large Intestine): 1.73 fold and 2.49 fold and 1.98 fold
mdr1 fold expression (C57BL/6 mice; Large Intestine): 1.58 fold and 1.34 fold and 1.57 fold
Cyp3a11 fold expression (C57BL/6 mice; Liver): 1.21 fold and 1.31 fold and 1.6 fold
mdr1 fold expression (C57BL/6 mice; Liver): 0.95 fold and 0.87 fold and 0.81 fold
Cyp3a11 fold expression (C57BL/6 mice; Small Intestine): 1.28 fold and 1.07 fold and 0.75 fold
mdr1 fold expression (C57BL/6 mice; Small Intestine): 1.46 fold and 2.26 fold and 1.43 fold
PXR target gene (cyp3a11, mdr1a, mdr1b, mdr1) expression across organs (C57BL/6 mice; ~500 μM, 36 or 60 h): No significant effect
fold induction at 60 h, 500 µM (Cyp3a11 [2]; in vivo, read-out: Cyp3a11 fold induction, Large Intestine): 2.55
fold induction at 60 h (Cyp3a11 [2]; liver, oral, 500 μM FKK6 gavage every 12 h): 1.72
fold induction at 60 h, 500 µM (mdr1a; in vivo, read-out: mdr1a fold induction, Liver): 1.81
fold induction at 60 h, 500 µM (mdr1a; large intestine, oral, read-out: mdr1a fold induction, Large Intestine): 1.27
fold induction at 60 h, 500 µM (mdr1a; liver, oral, read-out: mdr1a fold induction, Liver): 3.05
solubility [3]: ~500 µM (≈ 201 µg/mL)
